Assay results published in the supplement of paper PMC11061612.

Legend:
Assay in all cases: Bliss excess, mean over the matrix (fraction); higher = more synergy
[1] = test system: MDST8 (Colorectal Carcinoma)
Method in brief: (§1)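 After 24 hours at 37°C and 5% CO2 in 1536-well plates, cells in DMEM/F12 or RPMI plus 10% FBS received two-drug dose matrices for 72 hours. Viability came from CellTiter-Glo 2.0 luminescence and was scaled as inhibition, anchored at 0 by vehicle wells and at 1 by blank wells. Combination Emax is taken as the second-highest inhibition in the matrix, and Bliss excess as the observed combination effect less EA + EB − EA·EB, with EA and EB the single-agent effects.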

[2] = test system: NCI-H64 (Small Cell Lung Carcinoma)
Method in brief: as §1

FU97 (Gastric Carcinoma) = test system: FU97 (Gastric Carcinoma)
Method in brief: as §1

[3] = test system: ONS-76 (Other Solid Carcinomas)
Method in brief: as §1

[4] = test system: COLO-320-HSR (Colorectal Carcinoma)
Method in brief: as §1

[5] = test system: A549 (Lung Adenocarcinoma)
Method in brief: as §1

[6] = test system: SK-MG-1 (Low Grade Glioma)
Method in brief: as §1

[7] = test system: NCI-H1581 (Non-Small Cell Lung Carcinoma)
Method in brief: as §1

[8] = test system: CAL-29 (Bladder Carcinoma)
Method in brief: as §1

IGR-37 (Melanoma) = test system: IGR-37 (Melanoma)
Method in brief: as §1

PA-1 (Ovarian Carcinoma) = test system: PA-1 (Ovarian Carcinoma)
Method in brief: as §1

[9] = test system: JSC-1 (B-Cell Non-Hodgkin's Lymphoma)
Method in brief: as §1

[10] = test system: ECC10 (Gastric Carcinoma)
Method in brief: as §1

[11] = test system: NCI-H2066 (Squamous Cell Lung Carcinoma)
Method in brief: as §1

[12] = test system: NCI-H1650 (Lung Adenocarcinoma)
Method in brief: as §1

[13] = test system: NCI-H1693 (Lung Adenocarcinoma)
Method in brief: as §1

[14] = test system: A3-KAW (B-Cell Non-Hodgkin's Lymphoma)
Method in brief: as §1

[15] = test system: COR-L311 (Small Cell Lung Carcinoma)
Method in brief: as §1

[16] = test system: CAPAN-2 (Pancreatic Carcinoma)
Method in brief: as §1

Hs-445 (Non-Cancerous) = test system: Hs-445 (Non-Cancerous)
Method in brief: as §1

Compound	Bliss excess [1]	Bliss excess [2]	Bliss excess (FU97 (Gastric Carcinoma))	Bliss excess [3]	Bliss excess [4]	Bliss excess [5]	Bliss excess [6]	Bliss excess [7]	Bliss excess [8]	Bliss excess (IGR-37 (Melanoma))	Bliss excess (PA-1 (Ovarian Carcinoma))	Bliss excess [9]	Bliss excess [10]	Bliss excess [11]	Bliss excess [12]	Bliss excess [13]	Bliss excess [14]	Bliss excess [15]	Bliss excess [16]	Bliss excess (Hs-445 (Non-Cancerous))
COc1cccc2c1C(=O)c1c(O)c3c(c(O)c1C2=O)C[C@@](O)(C(=O)CO)C[C@@H]3O[C@H]1C[C@H](N)[C@H](O)[C@H](C)O1 [Doxorubicin] + Cc1cc2ncnn2cc1Nc1ncc2c(n1)n(C1CCOCC1)c(=O)n2C [AZD7648] (first compound max 1 µM, 7x7, partner max 10 µM)	0.0756	0.0063	-0.0094	0.0314	0.0307	0.0564	0.133	0.0529	0.0489	0.0631	0.0617	0.063	0.0602	-0.0396	-0.0002	0.036	0.0751	0.0893	-0.0419	0.102
Cc1cc2ncnn2cc1Nc1ncc2c(n1)n(C1CCOCC1)c(=O)n2C [AZD7648] + CCN(CCO)CCCOc1ccc2c(Nc3cc(CC(=O)Nc4cccc(F)c4)[nH]n3)ncnc2c1 [AZD2811] (first compound max 10 µM, 7x7, partner max 1 µM)	0.0619	0.0392	-0.0667	0.0443	0.0372	-0.0025	0.0477	0.0122	0.0545	0.0315	0.0239	0.0813	-0.047	-0.0318	0.0142	-0.0059	0.0762	-0.0806	-0.0525	0.0394
CC(=O)c1c(C)c2cnc(Nc3ccc(N4CCNCC4)cn3)nc2n(C2CCCC2)c1=O [Palbociclib] + CC1(C)CCC(CN2CCN(c3ccc(C(=O)NS(=O)(=O)c4ccc(NCC5CCOCC5)c([N+](=O)[O-])c4)c(Oc4cnc5[nH]ccc5c4)c3)CC2)=C(c2ccc(Cl)cc2)C1 [Venetoclax] (first compound max 10 µM, 7x7, partner max 1 µM)	-0.0059	-0.0185	-0.0281	-0.0115	-0.0625	-0.0056	-0.0134	-0.029	-0.0523	-0.0528	0.0133	-0.0127	0.0269	-0.027	-0.051	0.0079	-0.0332	-0.0186	-0.0473	0.119
CC1(C)CCC(CN2CCN(c3ccc(C(=O)NS(=O)(=O)c4ccc(NCC5CCOCC5)c([N+](=O)[O-])c4)c(Oc4cnc5[nH]ccc5c4)c3)CC2)=C(c2ccc(Cl)cc2)C1 [Venetoclax] + COc1cc(Nc2ncc3c(n2)-c2ccc(Cl)cc2C(c2c(F)cccc2OC)=NC3)ccc1C(=O)O [Alisertib] (first compound max 1 µM, 7x7, partner max 10 µM)	-0.0242	0.194	-0.0524	-0.0478	0.0248	-0.0696	-0.0126	0.0694	-0.0554	-0.0148	0.0385	0.0504	-0.0281	0.0077	-0.0515	-0.0862	-0.156	0.0981	-0.0463	0.374
CN(C)CCCOc1ccc(-c2ccc3ncc4c(c3c2)n(C2CCOCC2)c(=O)n4C)cn1 [AZD0156] + C[C@@H]1COCCN1C2=NC(=NC(=C2)C3(CC3)[S@](=N)(=O)C)C4=C5C=CNC5=NC=C4 [AZD6738] (first compound max 1 µM, 7x7, partner max 10 µM)	0.0296	-0.0368	-0.0353	0.0096	-0.0146	-0.0652	0.0249	0.0005	0.0162	-0.0153	-0.0238	0.0233	-0.0104	-0.0404	-0.0294	-0.0424	0.0876	0.0265	-0.0591	-0.0409
CN(CCO)CC[C@H](CSc1ccccc1)Nc1ccc(S(=O)(=O)NC(=O)c2ccc(N3CCC([C@@H](O)c4ccccc4-c4ccc(Cl)cc4)CC3)cc2)cc1S(=O)(=O)C(F)(F)F [AZD4320] + CCN(CCO)CCCOc1ccc2c(Nc3cc(CC(=O)Nc4cccc(F)c4)[nH]n3)ncnc2c1 [AZD2811] (first compound max 1 µM, 7x7, partner max 1 µM)	0.0868	0.158	-0.0531	0.0817	-0.0087	-0.149	0.0981	0.0584	0.103	-0.0204	0.0664	0.0215	0.0193	-0.0391	-0.0164	-0.003	0.0628	0.0249	0.0013	0.175
CC1(C)CCC(CN2CCN(c3ccc(C(=O)NS(=O)(=O)c4ccc(NCC5CCOCC5)c([N+](=O)[O-])c4)c(Oc4cnc5[nH]ccc5c4)c3)CC2)=C(c2ccc(Cl)cc2)C1 [Venetoclax] + Cn1cnc2c(F)c(Nc3ccc(Br)cc3Cl)c(C(=O)NOCCO)cc21 [Selumetinib] (first compound max 1 µM, 7x7, partner max 3 µM)	-0.0579	-0.0243	-0.0378	-0.141	-0.0062	-0.0401	-0.0062	-0.0158	-0.0137	-0.0499	-0.0117	-0.0184	0.0364	-0.0074	-0.0457	-0.0396	0.0127	-0.0367	-0.0256	0.0401
CC1(C)CCC(CN2CCN(c3ccc(C(=O)NS(=O)(=O)c4ccc(NCC5CCOCC5)c([N+](=O)[O-])c4)c(Oc4cnc5[nH]ccc5c4)c3)CC2)=C(c2ccc(Cl)cc2)C1 [Venetoclax] + C1CN(CCC1(C(=O)N[C@@H](CCO)C2=CC=C(C=C2)Cl)N)C3=NC=NC4=C3C=CN4 [Capivasertib] (first compound max 1 µM, 7x7, partner max 3 µM)	-0.0389	0.0083	-0.0295	-0.114	-0.0006	-0.059	-0.0649	-0.041	-0.0319	-0.0448	-0.0541	-0.0613	-0.0202	-0.0142	-0.0329	-0.0333	-0.0468	-0.0022	-0.0658	0.0344
CC1(C)CCC(CN2CCN(c3ccc(C(=O)NS(=O)(=O)c4ccc(NCC5CCOCC5)c([N+](=O)[O-])c4)c(Oc4cnc5[nH]ccc5c4)c3)CC2)=C(c2ccc(Cl)cc2)C1 [Venetoclax] + Cc1cc2ncnn2cc1Nc1ncc2c(n1)n(C1CCOCC1)c(=O)n2C [AZD7648] (first compound max 1 µM, 7x7, partner max 10 µM)	-0.0151	-0.056	-0.0387	-0.0499	-0.0098	-0.0445	-0.0351	0.0081	-0.0222	0.0149	-0.0014	-0.0103	0.0065	-0.0266	-0.0446	0.0211	0.0185	0.0472	-0.0083	-0.0081
NC1(C(=O)N[C@@H](CCO)c2ccc(Cl)cc2)CCN(c2ncnc3[nH]ccc23)CC1 [Capivasertib] + CC(C)n1c(=O)n(C)c2cnc3cc(F)c(-c4ccc(OCCCN5CCCCC5)nc4)cc3c21 [AZD1390] (first compound max 10 µM, 7x7, partner max 0.3 µM)	-0.0327	-0.0284	-0.0099	-0.0894	-0.0512	-0.0678	-0.111	-0.0784	-0.0702	-0.0528	-0.102	-0.0888	-0.0231	-0.0222	-0.0219	-0.111	0.0088	-0.0564	-0.0651	-0.0763
CN(CCO)CC[C@H](CSc1ccccc1)Nc1ccc(S(=O)(=O)NC(=O)c2ccc(N3CCC([C@@H](O)c4ccccc4-c4ccc(Cl)cc4)CC3)cc2)cc1S(=O)(=O)C(F)(F)F [AZD4320] + C[C@@H]1COCCN1C2=NC(=NC(=C2)C3(CC3)[S@](=N)(=O)C)C4=C5C=CNC5=NC=C4 [AZD6738] (first compound max 1 µM, 7x7, partner max 10 µM)	-0.0578	-0.0404	-0.0215	-0.0386	0.0161	-0.0778	0.0076	-0.0837	0.0426	0.0151	0.0242	-0.0276	-0.0256	-0.0437	0.0045	-0.0055	-0.0229	-0.0005	-0.0461	0.0592
NC1(C(=O)N[C@@H](CCO)c2ccc(Cl)cc2)CCN(c2ncnc3[nH]ccc23)CC1 [Capivasertib] + CC(=O)c1c(C)c2cnc(Nc3ccc(N4CCNCC4)cn3)nc2n(C2CCCC2)c1=O [Palbociclib] (first compound max 10 µM, 7x7, partner max 10 µM)	-0.0378	-0.0332	-0.0168	0.027	-0.0013	-0.103	-0.0303	0.0213	0.0198	-0.0344	0.0288	-0.0107	-0.011	-0.033	-0.0223	-0.0631	0.0548	-0.0489	-0.0164	-0.0616
